Source: article PMC7029851, “Antibacterial activity of novel dual bacterial DNA type II topoisomerase inhibitors” (PLoS ONE, 2020)
Read-outs that look alike come from different tables or passages of the source.

Experiments:
E. coli ATCC 25922 [1] = test: Time-kill assay; assay type: cell-based, Escherichia coli; conditions: 1× to 4× MIC, over 24 hours
Description: Time-kill experiments were performed according to the procedure reported by Knapp. […] A drug-free control was included in each experiment. The bacterial cultures were standardized to obtain an initial inoculum that ranged from 5×10^5 to 5×10^6 CFU/ml. The cultures were incubated at 37°C in a shaking bath. At 0, 2, 4, 8 and 24-hour intervals, viable counts were performed by spotting (in triplicate) 10 μl aliquots of suitable dilutions of the cultures onto Mueller-Hinton agar (MHA, Oxoid, Basingstoke, UK) plates. After incubation at 37°C for 24 hours, the bactericidal activity, namely, the ability to reduce the initial inoculum by 3 log10 CFU/ml, was assessed for each tested concentration over time.

[2] = test system: H. influenzae AcrA- mutant; test: microbe, parasite or virus in culture; assay type: cell-based; conditions: Haemophilus influenzae
In short: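 MICs against efflux-deficient mutant strains were determined by broth microdilution following CLSI guidelines.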

S. aureus ATCC 29213 [3] = assay type: cell-based, Staphylococcus aureus; conditions: S. aureus ATCC 29213, 2×MIC
C. difficile ATCC 700057 = test: MIC, broth microdilution; assay type: cell-based, Clostridium difficile; conditions: Clostridioides difficile, ATCC700057
Description: MICs were determined by the broth microdilution method (the agar dilution method was used only for N. gonorrhoeae) according to CLSI guidelines. […] The MIC values of antibiotics used in clinical practice were interpreted according to the susceptibility interpretive criteria reported in the appropriate CLSI Tables (M100-S25, CLSI, 2015).

CYP2C19 = CYP2C19 (Homo sapiens, UniProt P33261); test: Inhibition of P450 isoenzymes; assay type: in vitro ADME
CYP2C19, sequence (P33261 whole entry): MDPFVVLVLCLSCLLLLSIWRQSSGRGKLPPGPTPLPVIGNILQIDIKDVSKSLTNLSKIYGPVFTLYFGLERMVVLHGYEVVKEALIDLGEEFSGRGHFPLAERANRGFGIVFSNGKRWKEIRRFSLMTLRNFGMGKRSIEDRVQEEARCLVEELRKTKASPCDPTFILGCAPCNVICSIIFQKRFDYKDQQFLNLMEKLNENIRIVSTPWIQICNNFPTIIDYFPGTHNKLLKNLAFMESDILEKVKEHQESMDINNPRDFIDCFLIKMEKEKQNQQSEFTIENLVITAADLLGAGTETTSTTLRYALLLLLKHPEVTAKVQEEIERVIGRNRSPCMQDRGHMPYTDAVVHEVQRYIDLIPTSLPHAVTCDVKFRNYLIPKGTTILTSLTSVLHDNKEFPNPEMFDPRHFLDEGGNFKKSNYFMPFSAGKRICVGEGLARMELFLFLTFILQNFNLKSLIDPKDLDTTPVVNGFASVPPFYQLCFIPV
Description: (§1) Inhibition of P450 isoenzymes.

[4] = test system: CYP1A, CYP2B6, CYP2C8, CYP2C9, CYP2D6 and CYP3A4; test: Inhibition of P450 isoenzymes; assay type: in vitro ADME; conditions: human, read-out: % inhibition of CYP450 isoenzymes other than CYP2C19
Description: as §1

S. aureus ATCC 29213 [5] = test: Post-antibiotic effect (PAE); assay type: cell-based, Staphylococcus aureus; conditions: 1-hour exposure, range over 1×, 4× and 16× MIC
Description: A drug-free control was included in each experiment. After being exposed to the drug for 1 hour, viable counts were conducted in triplicate by spotting aliquots (10 μl) of suitable dilutions onto MHA plates. The drugs were removed by diluting the bacterial cultures (1:1000) in Cation-Adjusted Mueller-Hinton Broth (CAMHB; Sigma-Aldrich). The diluted cultures were incubated in a shaking bath at 37°C. To monitor the ongoing suppression of bacterial growth over time (5 hours), aliquots from each broth culture were periodically collected, diluted and plated to perform subsequent viable counts (in triplicate).

[6] = test system: A. baumannii clinical isolates (n = 10); test: microbe, parasite or virus in culture; assay type: cell-based, Acinetobacter baumannii
Description: (§2) The bacterial reference strains used in this study were purchased from ATCC (American Type Culture Collection) via LGC Standards (Middlesex, UK). […] Clinical MDR isolates were provided by Aptuit, the IHMA Europa Sàrl repository (Epalinges, Switzerland) and the Statens Serum Institute (Copenhagen, Denmark).
(§3) MICs were determined by the broth microdilution method (the agar dilution method was used only for N. gonorrhoeae) according to CLSI guidelines.
(§4) The results obtained using clinical isolates are reported as MIC50 and MIC90 values.

[7] = test system: C. difficile clinical isolates (n = 21); test: MIC, multidrug-resistant clinical isolates; assay type: cell-based, Clostridium difficile; conditions: Clostridioides difficile, C. difficile clinical isolates (n = 21)
Description: as §2, §3, §4

[8] = test system: E. coli clinical isolates (n = 36); test: MIC, multidrug-resistant clinical isolates; assay type: cell-based, Escherichia coli; conditions: Escherichia coli, E. coli MDR clinical isolates (n = 36)
Description: as §2, §3, §4

S. pyogenes APV00074 = test: MIC, broth microdilution; assay type: cell-based; conditions: Streptococcus pyogenes; S. pyogenes APV00074, ciprofloxacin-susceptible
Description: as §3

A. baumannii APV00473 = test: MIC, broth microdilution; assay type: cell-based; conditions: Acinetobacter baumannii; A. baumannii APV00473, ciprofloxacin-resistant
Description: as §3

S. pyogenes APV00083 = test: MIC, broth microdilution; assay type: cell-based; conditions: Streptococcus pyogenes; S. pyogenes APV00083, ciprofloxacin-susceptible
Description: as §3

E. coli 4SI = test: MIC, broth microdilution; assay type: cell-based; conditions: Escherichia coli, ciprofloxacin-resistant
Description: as §3

A. baumannii ATCC 19606 = test: MIC, broth microdilution; assay type: cell-based; conditions: Acinetobacter baumannii, ATCC19606; A. baumannii ATCC 19606, ciprofloxacin-susceptible
Description: as §3

S. aureus ATCC 29213 [9] = test: Minimal bactericidal concentration; assay type: cell-based, Staphylococcus aureus
Description: (§5) Minimal bactericidal concentrations (MBCs) were determined according to the procedure described by Knapp. Viable counts were performed after plates were incubated at 37°C for 24 hours. The MBC was defined as the lowest concentration that reduced the viability of the initial bacterial inoculum by ≥99.9%.

S. aureus BAA-1720 = test: Minimal bactericidal concentration; assay type: cell-based, Staphylococcus aureus
Description: as §5

hERG channel = biological target: T1, hERG channel (Homo sapiens, UniProt Q12809); test: hERG automated patch clamp assay; assay type: cell-based; conditions: CHO-K1, read-out: IC50 against hERG channels
T1 construct: expressed in transfected cells; host or cells: CHO-K1
T1 sequence (Q12809 whole entry): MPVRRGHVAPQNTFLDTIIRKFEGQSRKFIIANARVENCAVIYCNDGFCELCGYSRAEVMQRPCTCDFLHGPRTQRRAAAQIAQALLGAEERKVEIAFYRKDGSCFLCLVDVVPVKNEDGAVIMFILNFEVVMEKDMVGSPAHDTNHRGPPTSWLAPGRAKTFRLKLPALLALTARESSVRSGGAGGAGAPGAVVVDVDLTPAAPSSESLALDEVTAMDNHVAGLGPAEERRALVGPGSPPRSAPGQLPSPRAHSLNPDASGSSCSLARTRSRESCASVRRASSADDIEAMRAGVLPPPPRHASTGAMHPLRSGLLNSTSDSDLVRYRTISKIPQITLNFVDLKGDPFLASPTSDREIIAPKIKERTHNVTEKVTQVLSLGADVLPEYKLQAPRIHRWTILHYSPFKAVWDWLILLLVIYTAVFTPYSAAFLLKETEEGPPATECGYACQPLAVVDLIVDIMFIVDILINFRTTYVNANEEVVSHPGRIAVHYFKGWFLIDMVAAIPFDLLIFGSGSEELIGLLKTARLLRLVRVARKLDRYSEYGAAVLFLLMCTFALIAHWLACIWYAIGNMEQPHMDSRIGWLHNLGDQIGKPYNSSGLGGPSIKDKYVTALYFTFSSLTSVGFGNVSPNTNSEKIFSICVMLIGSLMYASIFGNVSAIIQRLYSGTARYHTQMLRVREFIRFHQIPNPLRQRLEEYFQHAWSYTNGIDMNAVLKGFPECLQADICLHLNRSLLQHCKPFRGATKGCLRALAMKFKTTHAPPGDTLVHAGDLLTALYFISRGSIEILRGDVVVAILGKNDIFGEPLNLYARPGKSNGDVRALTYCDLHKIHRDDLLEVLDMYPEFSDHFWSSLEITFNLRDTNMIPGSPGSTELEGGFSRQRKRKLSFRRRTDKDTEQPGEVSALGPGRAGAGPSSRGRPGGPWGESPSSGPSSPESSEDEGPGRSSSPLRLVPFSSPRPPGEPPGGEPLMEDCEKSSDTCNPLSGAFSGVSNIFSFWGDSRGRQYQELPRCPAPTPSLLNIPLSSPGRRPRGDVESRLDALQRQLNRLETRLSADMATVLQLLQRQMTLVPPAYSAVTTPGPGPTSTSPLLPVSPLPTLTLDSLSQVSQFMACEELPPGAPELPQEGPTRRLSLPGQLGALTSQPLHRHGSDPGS
Description: hERG automated patch clamp assay. The human recombinant ERG CHO-K1 cell line was used in an automated patch clamp assay (qPatch system) to evaluate the hERG channel blockade potential of compounds 1 and 2 [36]. Concentration (log) response curves were fitted to a logistic equation to generate estimates of the 50% inhibitory value.

E. coli ATCC 25922 [10] = test: Minimal bactericidal concentration; assay type: cell-based, Escherichia coli
Description: as §5

[11] = test system: S. aureus clinical isolates (n = 10); test: microbe, parasite or virus in culture; assay type: cell-based, Staphylococcus aureus
Description: as §2, §3, §4

[12] = S. aureus MDR clinical isolates (n = 10)

For `Cl.N#Cc1ccc2ccc(=O)n([C@H]3CC[C@H](NCc4cc5c(=O)oc6ccc(F)cc6c5[nH]4)CC3)c2c1` [Compound 2, 1-(trans-4-{[(8-fluoro-4-oxo-1,4-dihydro[1]benzopyrano[4,3-b]pyrrol-2-yl)methyl]amino}cyclohexyl)-2-oxo-1,2-dihydroquinoline-7-carbonitrile hydrochloride], the “Bactericidal activity in time-kill (reduction of 3 log10 CFU/ml)” value (E. coli ATCC 25922 [1]) was “no bactericidal activity”, the MIC [2] was ≤ 0.016 µg/mL and the “In vitro frequency of resistant mutants” value (S. aureus ATCC 29213 [3]) was 6.7×10^−7. The MIC (C. difficile ATCC 700057) was 0.25 µg/mL, the inhibition at 10 µM (CYP2C19) was 69% and the inhibition at 10 µM [4] was ≤ 35%. The PAE (S. aureus ATCC 29213 [5]) was 73 to 78 min, the MIC range [6] was ≤0.06 to 0.12 µg/mL and the MIC50 ([6]; Acinetobacter baumannii) was ≤ 0.06 µg/mL. For the same compound, the MIC90 ([6]; Acinetobacter baumannii) was 0.12 µg/mL, the MIC50 ([7]; read-out: MIC50) was 0.12 µg/mL and the MIC90 ([7]; read-out: MIC90) was 0.25 µg/mL. The MIC ([7]; read-out: MIC range) was 0.06 to 0.25 µg/mL, the MIC [8] was 0.5 to 4 µg/mL and the MIC50 ([8]; read-out: MIC50) was 1 µg/mL. For the same compound, the MIC90 ([8]; read-out: MIC90) was 2 µg/mL, the MIC (S. pyogenes APV00074) was ≤ 0.06 µg/mL and the MIC (A. baumannii APV00473) was 0.5 µg/mL. The MIC (S. pyogenes APV00083) was ≤ 0.06 µg/mL, the MIC (E. coli 4SI) was 0.5 µg/mL and the MIC (A. baumannii ATCC 19606) was 0.12 µg/mL. The MBC/MIC (S. aureus ATCC 29213 [9]) was 16, the MBC (S. aureus ATCC 29213 [9]; Staphylococcus aureus, ATCC29213, ≥99.9% reduction of inoculum) was 0.5 µg/mL and the MBC/MIC (S. aureus ATCC 29213 [9]; listed as compound 2) was ≥ 16. For the same compound, the MBC/MIC (S. aureus BAA-1720) was 125, the MBC (S. aureus BAA-1720; Staphylococcus aureus, BAA1720, ≥99.9% reduction of inoculum) was 2 µg/mL and the MBC/MIC (S. aureus BAA-1720; listed as compound 2) was ≥ 16. The IC50 (hERG channel) was > 100 µM, the MBC/MIC (E. coli ATCC 25922 [10]) was 2 and the MBC (E. coli ATCC 25922 [10]; Escherichia coli, ATCC25922, ≥99.9% reduction of inoculum) was 1 µg/mL. The MIC50 [11, 12] was ≤ 0.06 µg/mL, the MIC90 [11, 12] was ≤ 0.06 µg/mL and the MIC range [11, 12] was ≤0.06 µg/mL. The MIC ([11]; Staphylococcus aureus, MRSA, S. aureus APV0063, MRSA) was ≤ 0.06 µg/mL, the MIC ([11]; Staphylococcus aureus, MRSA, S. aureus APV0064, MRSA) was ≤ 0.06 µg/mL and the MIC ([11]; Staphylococcus aureus, MRSA, S. aureus APV0065, MRSA) was ≤ 0.06 µg/mL. For the same compound, the MIC ([11]; Staphylococcus aureus, S. aureus APV00045, M (macrolide resistance)) was ≤ 0.06 µg/mL, the MIC ([11]; Staphylococcus aureus, S. aureus APV0048, MLSi) was ≤ 0.06 µg/mL and the MIC ([11]; Staphylococcus aureus, S. aureus APV0049, MLSi) was ≤ 0.06 µg/mL. The MIC ([11]; Staphylococcus aureus, S. aureus APV0052, MLSc) was ≤ 0.06 µg/mL, the MIC ([11]; Staphylococcus aureus, S. aureus APV0053, MLSc) was ≤ 0.06 µg/mL and the MIC ([11]; Staphylococcus aureus, S. aureus APV00280, M (macrolide resistance)) was ≤ 0.06 µg/mL. The MIC ([11]; Staphylococcus aureus, S. aureus APV00281, M (macrolide resistance)) was ≤ 0.06 µg/mL, the MIC50 ([11]; Staphylococcus aureus, S. aureus MDR clinical isolates (n = 10), read-out: MIC50) was ≤ 0.06 µg/mL and the MIC90 ([11]; Staphylococcus aureus, S. aureus MDR clinical isolates (n = 10), read-out: MIC90) was ≤ 0.06 µg/mL.
